Values belong to the compound of their own block, whether it stands above or below them.
Assays:
[1] = biological target: T1, Endothelin receptor type B (Homo sapiens, UniProt P24530); experiment: Displacement of [I125]ET1 from Homo sapiens (human) ETB receptor expressed in CHO cells; assay type: cell-based
T1 sequence (P24530 whole entry): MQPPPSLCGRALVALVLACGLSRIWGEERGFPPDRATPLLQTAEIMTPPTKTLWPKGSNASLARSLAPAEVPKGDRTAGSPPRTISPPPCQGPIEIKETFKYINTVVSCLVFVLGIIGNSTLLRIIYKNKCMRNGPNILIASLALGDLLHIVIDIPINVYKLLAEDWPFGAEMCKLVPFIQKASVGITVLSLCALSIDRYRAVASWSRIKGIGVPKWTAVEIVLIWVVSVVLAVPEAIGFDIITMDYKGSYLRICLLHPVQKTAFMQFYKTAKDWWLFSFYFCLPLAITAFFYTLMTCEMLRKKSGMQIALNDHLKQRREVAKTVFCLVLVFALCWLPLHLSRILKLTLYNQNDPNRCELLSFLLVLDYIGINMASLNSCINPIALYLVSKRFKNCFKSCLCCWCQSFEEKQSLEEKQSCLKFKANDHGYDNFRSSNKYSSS

Endothelin-1 receptor = biological target: T2, Endothelin-1 receptor (Homo sapiens, UniProt P25101); experiment: Displacement of [I125]ET1 from Homo sapiens (human) ETA receptor expressed in CHO cells; assay type: cell-based
T2 sequence (P25101 whole entry): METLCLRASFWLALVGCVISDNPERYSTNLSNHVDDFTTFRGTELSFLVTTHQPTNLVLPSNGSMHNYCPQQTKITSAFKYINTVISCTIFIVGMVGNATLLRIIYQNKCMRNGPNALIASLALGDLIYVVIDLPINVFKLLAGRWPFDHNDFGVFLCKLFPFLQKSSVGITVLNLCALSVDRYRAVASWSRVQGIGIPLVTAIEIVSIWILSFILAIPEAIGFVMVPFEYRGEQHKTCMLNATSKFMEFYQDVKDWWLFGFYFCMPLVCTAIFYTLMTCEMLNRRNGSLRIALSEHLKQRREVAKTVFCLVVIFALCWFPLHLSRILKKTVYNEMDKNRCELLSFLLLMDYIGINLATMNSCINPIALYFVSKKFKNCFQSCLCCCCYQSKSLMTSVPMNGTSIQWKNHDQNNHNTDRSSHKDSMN

[2] = Inhibition of endothelin converting enzyme (unknown origin); design: species or system Homo sapiens
[3] = Drug absorption in Rattus norvegicus Sprague-Dawley (rat) at 2 mg/kg, iv; assay type: ADME, organism-based; design: dose 2 mg/kg, route intravenous; conditions: in vivo, read-out: Drug absorption
[4] = Fraction unbound in Rattus norvegicus Sprague-Dawley (rat) at 2 mg/kg, iv; assay type: ADME, organism-based; design: dose 2 mg/kg, route intravenous; conditions: in vivo
[5] = Volume of distribution in Rattus norvegicus Sprague-Dawley (rat) at 2 mg/kg, iv; assay type: ADME, organism-based; design: dose 2 mg/kg, route intravenous; conditions: in vivo
[6] = Permeability of the compound across Homo sapiens (human) Caco2 cells; assay type: ADME, cell-based; conditions: Caco-2, read-out: permeability
Rattus norvegicus [7] = experiment: Unbound clearance in Rattus norvegicus Sprague-Dawley (rat) at 2 mg/kg, iv; assay type: ADME, organism-based; design: dose 2 mg/kg, route intravenous; conditions: in vivo
[8] = Tmax in Rattus norvegicus (rat) at 2 mg/kg, po; assay type: ADME, organism-based; design: dose 2 mg/kg, route oral; conditions: in vivo
Rattus norvegicus [9] = experiment: Prodrug conversion in Rattus norvegicus (rat) assessed as (S)-3-(1-(benzo[d][1,3]dioxol-5-yl)-2-(2-methoxy-4-methylphenylsulfonamido)-2-oxoethyl)-1-methyl-1H-indole-6-carboxylic acid level at 2 mg/kg, po; assay type: ADME, organism-based; design: dose 2 mg/kg, route oral; conditions: in vivo
Rattus norvegicus [10] = experiment: Prodrug conversion in Rattus norvegicus (rat) assessed as (S)-3-(1-(benzo[d][1,3]dioxol-5-yl)-2-(2-methoxy-4-methylphenylsulfonamido)-2-oxoethyl)-1-methyl-1H-indole-6-carboxylic acid level at 2 mg/kg, iv; assay type: ADME, organism-based; design: dose 2 mg/kg, route intravenous; conditions: in vivo
[11] = Elimination half life in Rattus norvegicus (rat) at 2 mg/kg, iv; assay type: ADME, organism-based; design: dose 2 mg/kg, route intravenous; conditions: in vivo, read-out: beta t1/2 (converted)
[12] = Volume of distribution in Rattus norvegicus (rat) at 2 mg/kg, iv; assay type: ADME, organism-based; design: dose 2 mg/kg, route intravenous; conditions: in vivo
[13] = Plasma clearance in Rattus norvegicus (rat) at 2 mg/kg, iv; assay type: ADME, organism-based; design: dose 2 mg/kg, route intravenous
Canis familiaris [14] = experiment: Cardiotoxicity in Canis lupus familiaris (dog) assessed as change in left ventricular contractility at 1.5 to 15 mg/kg, po; assay type: toxicity, organism-based, Heart left ventricle; design: dose 1.5-15 mg/kg, route oral; conditions: in vivo
Canis familiaris [15] = experiment: Cardiotoxicity in Canis lupus familiaris (dog) assessed as change in ECG at 1.5 to 15 mg/kg, po; assay type: toxicity, organism-based; design: dose 1.5-15 mg/kg, route oral; conditions: in vivo
Canis familiaris [16] = experiment: Cardiotoxicity in Canis lupus familiaris (dog) assessed as change in heart rate at 1.5 to 15 mg/kg, po; assay type: toxicity, organism-based; design: dose 1.5-15 mg/kg, route oral; conditions: in vivo
Rattus norvegicus [17] = experiment: Toxicity in Rattus norvegicus (rat) at 30 mg/kg, po QD for 5 days; assay type: organism-based; design: dose 30 mg/kg, route oral; conditions: in vivo, 120 h
Liver cytosol [18] = experiment: Prodrug conversion in Sus scrofa (pig) liver cytosol assessed as (S)-3-(1-(benzo[d][1,3]dioxol-5-yl)-2-(2-methoxy-4-methylphenylsulfonamido)-2-oxoethyl)-1-methyl-1H-indole-6-carboxylic acid formation; assay type: ADME, tissue-based
Liver cytosol [19] = experiment: Prodrug conversion in Homo sapiens (human) liver cytosol assessed as (S)-3-(1-(benzo[d][1,3]dioxol-5-yl)-2-(2-methoxy-4-methylphenylsulfonamido)-2-oxoethyl)-1-methyl-1H-indole-6-carboxylic acid formation; assay type: ADME, tissue-based
Liver cytosol [20] = experiment: Prodrug conversion in male Rattus norvegicus (rat) liver cytosol assessed as (S)-3-(1-(benzo[d][1,3]dioxol-5-yl)-2-(2-methoxy-4-methylphenylsulfonamido)-2-oxoethyl)-1-methyl-1H-indole-6-carboxylic acid formation; assay type: ADME, tissue-based
[21] = Half life in Rattus norvegicus (rat) liver microsome at 1 uM; assay type: ADME; conditions: liver microsomes
[22] = Half life in Canis lupus familiaris (dog) liver microsome at 1 uM; assay type: ADME; conditions: liver microsomes
[23] = Half life in Homo sapiens (human) liver microsome at 1 uM; assay type: ADME; conditions: liver microsomes
Rattus norvegicus [24] = experiment: Apparent elimination half life in Rattus norvegicus (rat) assessed as (S)-3-(1-(benzo[d][1,3]dioxol-5-yl)-2-(2-methoxy-4-methylphenylsulfonamido)-2-oxoethyl)-1-methyl-1H-indole-6-carboxylic acid level at 2 mg/kg, po; assay type: ADME, organism-based; design: dose 2 mg/kg, route oral; conditions: in vivo
Rattus norvegicus [25] = experiment: Drug absorption in Rattus norvegicus (rat) assessed as (S)-3-(1-(benzo[d][1,3]dioxol-5-yl)-2-(2-methoxy-4-methylphenylsulfonamido)-2-oxoethyl)-1-methyl-1H-indole-6-carboxylic acid level at 2 mg/kg; assay type: ADME, organism-based; design: dose 2 mg/kg; conditions: in vivo
Rattus norvegicus [26] = experiment: Tmax in Rattus norvegicus (rat) assessed as (S)-3-(1-(benzo[d][1,3]dioxol-5-yl)-2-(2-methoxy-4-methylphenylsulfonamido)-2-oxoethyl)-1-methyl-1H-indole-6-carboxylic acid level at 2 mg/kg, po; assay type: ADME, organism-based; design: dose 2 mg/kg, route oral; conditions: in vivo
Rattus norvegicus [27] = experiment: Cmax in Rattus norvegicus (rat) assessed as (S)-3-(1-(benzo[d][1,3]dioxol-5-yl)-2-(2-methoxy-4-methylphenylsulfonamido)-2-oxoethyl)-1-methyl-1H-indole-6-carboxylic acid level at 2 mg/kg, po; assay type: ADME, organism-based; design: dose 2 mg/kg, route oral; conditions: in vivo
[28] = Cmax in Rattus norvegicus (rat) at 2 mg/kg, po; assay type: ADME, organism-based; design: dose 2 mg/kg, route oral; conditions: in vivo

IC50 [1]: 347 nM
Ki [1]: 1460 nM
IC50 (Endothelin-1 receptor): 4.2 nM
IC50 [2]: 325000 nM
SMILES: COc1cc(C)ccc1S(=O)(=O)NC(=O)[C@@H](c1ccc2c(c1)OCO2)c1cn(C)c2cc(C(=O)O)ccc12

Fa [3]: 55%
Fu [4]: 0.01%
Vd [5]: 1.2 L/kg
Papp [6]: 1.2 ×10⁻⁶ cm/s
CL free (Rattus norvegicus [7]): 7200 mL/min/kg
IC50 [1]: 245 nM
IC50 (Endothelin-1 receptor): 8.7 nM
SMILES: COc1cc(C)ccc1S(=O)(=O)NC(=O)C(c1ccc2c(c1)OCO2)c1cn(C)c2cc(CO)ccc12 (configuration not stated)

Tmax [8]: 0.25 h
Drug metabolism (Rattus norvegicus [9]): Active
Drug metabolism (Rattus norvegicus [10]): Active
half-life [11]: 1.1 h
Vd [12]: 0.16 L/kg
IC50 [1]: 683 nM
Ki [1]: 1500 nM
clearance [13]: 1.7 mL/min/kg
IC50 (Endothelin-1 receptor): 2.2 nM
Ki (Endothelin-1 receptor): 2.2 nM
IC50 [2]: 765000 nM
Drug metabolism (Liver cytosol [18]): Active
Drug metabolism (Liver cytosol [19]): Active
Drug metabolism (Liver cytosol [20]): Active
half-life at 1 µM [21]: > 2 h
half-life at 1 µM [22]: > 2 h
half-life at 1 µM [23]: > 2 h
betat1/2(app) (Rattus norvegicus [24]): 9 h
Drug absorption (Rattus norvegicus [25]): 36%
Tmax (Rattus norvegicus [26]): 4 h
Cmax (Rattus norvegicus [27]): 83 ng/mL
Cmax [28]: 48 ng/mL
SMILES: COc1cc(C)ccc1S(=O)(=O)NC(=O)[C@@H](c1ccc2c(c1)OCO2)c1cn(C)c2cc(CO)ccc12
Activity (Canis familiaris [14]): Non-toxic
Activity (Canis familiaris [15]): Non-toxic
Activity (Canis familiaris [16]): Non-toxic
Activity (Rattus norvegicus [17]): Non-toxic

Fa [3]: < 5%
Fu [4]: 0.007%
Vd [5]: 0.6 L/kg
Papp [6]: 1.6 ×10⁻⁶ cm/s
CL free (Rattus norvegicus [7]): 1329 mL/min/kg
IC50 [1]: 275 nM
SMILES: COc1cc(C)ccc1S(=O)(=O)NC(=O)C(c1ccc2c(c1)OCO2)c1cn(C)c2cc(C(N)=O)ccc12 (racemic)

IC50 (Endothelin-1 receptor): 560 nM
SMILES: CCn1cc(C(C(=O)NS(=O)(=O)c2ccc(C(C)C)cc2)c2ccc3c(c2)OCO3)c2ccccc21 (racemic)

Fa [3]: < 5%
Fu [4]: 0.048%
Vd [5]: 0.3 L/kg
Papp [6]: < 0.5 ×10⁻⁶ cm/s
CL free (Rattus norvegicus [7]): 138 mL/min/kg
IC50 [1]: 574 nM
IC50 (Endothelin-1 receptor): 1.7 nM
SMILES: Cn1cc(C(C(=O)NS(=O)(=O)c2ccc(CC(=O)O)cc2)c2ccc3c(c2)OCO3)c2ccc(C(N)=O)cc21 (racemic)

Fa [3]: < 5%
Fu [4]: 0.01%
Vd [5]: 0.6 L/kg
Papp [6]: < 0.5 ×10⁻⁶ cm/s
CL free (Rattus norvegicus [7]): 609 mL/min/kg
IC50 [1]: 650 nM
IC50 (Endothelin-1 receptor): 5.3 nM
SMILES: COc1cc(C)ccc1S(=O)(=O)NC(=O)C(c1ccc2c(c1)OCO2)c1cn(C)c2cc(C(=O)O)ccc12 (racemic)

IC50 (Endothelin-1 receptor): 34 nM
SMILES: Cc1ccc(S(=O)(=O)NC(=O)C(c2ccc3c(c2)OCO3)c2cn(C)c3cc(CO)ccc23)cc1 (racemic)

IC50 [1]: 217 nM
IC50 (Endothelin-1 receptor): 46 nM
SMILES: COc1cc(C)ccc1S(=O)(=O)NC(=O)C(c1ccc2c(c1)OCO2)c1cn(C)c2cc(Cl)ccc12 (racemic)

Fa [3]: 100%
Fu [4]: 0.005%
Vd [5]: 4 L/kg
Papp [6]: 5 ×10⁻⁶ cm/s
CL free (Rattus norvegicus [7]): 1740 mL/min/kg
IC50 [1]: 219 nM
IC50 (Endothelin-1 receptor): 14 nM
SMILES: COc1cc(C)ccc1S(=O)(=O)NC(=O)C(c1ccc2c(c1)OCO2)c1cn(C)c2cc(F)ccc12 (racemic)

Fa [3]: 70%
Fu [4]: 0.002%
Vd [5]: 5 L/kg
Papp [6]: 20 ×10⁻⁶ cm/s
CL free (Rattus norvegicus [7]): 17000 mL/min/kg
IC50 [1]: 906 nM
IC50 (Endothelin-1 receptor): 1.4 nM
SMILES: COc1cc(C)ccc1S(=O)(=O)NC(=O)C(c1ccc2c(c1)OCO2)c1cn(C)c2cc(C(C)=O)ccc12 (racemic)

Fu [4]: 0.002%
Vd [5]: 2.8 L/kg
Papp [6]: 20 ×10⁻⁶ cm/s
CL free (Rattus norvegicus [7]): 19000 mL/min/kg
IC50 [1]: 421 nM
IC50 (Endothelin-1 receptor): 11 nM
SMILES: COc1cc(C)ccc1S(=O)(=O)NC(=O)C(c1ccc2c(c1)OCO2)c1cn(C)c2cc(C#N)ccc12 (racemic)

IC50 [1]: 1140 nM
IC50 (Endothelin-1 receptor): 8.8 nM
SMILES: COCc1ccc2c(C(C(=O)NS(=O)(=O)c3ccc(C)cc3OC)c3ccc4c(c3)OCO4)cn(C)c2c1 (racemic)

IC50 [1]: 240 nM
IC50 (Endothelin-1 receptor): 18 nM
SMILES: CCOC(=O)c1ccc2c(C(C(=O)NS(=O)(=O)c3ccc(C)cc3OC)c3ccc4c(c3)OCO4)cn(C)c2c1 (racemic)

IC50 [1]: 69 nM
SMILES: CCn1cc(C(C(=O)NS(=O)(=O)c2ccc(C(C)C)cc2)c2ccc3c(c2)OCO3)c2ccc(C(=O)O)cc21 (racemic)

IC50 [1]: 15 nM
SMILES: CC(C)c1ccc(S(=O)(=O)NC(=O)C(c2ccc3c(c2)OCO3)c2cn(C)c3cc(C(N)=O)ccc23)cc1 (racemic)
